Publication PMC5787524, “Discovery of a FLT3 inhibitor LDD1937 as an anti-leukemic agent for acute myeloid leukemia” (Oncotarget, 2017)

Columns and labels:
[1] = system: phosphorylated STAT5 in MV-4-11 cells; experiment: STAT5 phosphorylation western blot; format: cell-based, human; settings: MV-4-11, 4 h
Protocol: Cells were lysed in SDS Lysis buffer (12 mM Tris-Cl, pH 6.8, 5% glycerol, and 0.4% SDS), and the protein concentrations were measured with the SMART BCA Protein Assay kit (iNtRON Biotechnology, Korea). The proteins were resolved with SDS-polyacrylamide gel electrophoresis followed by transfer to PVDF membranes (Millipore, Billerica, MA, USA) and incubated overnight with the appropriate antibodies. The antibodies used were as follows: phospho-STAT5 (p-STAT5; rabbit polyclonal IgG; #9351, 1:1,000), cyclin D1 (rabbit polyclonal IgG; #2922, 1:1,000), and PARP (rabbit polyclonal IgG; #9542, 1:1,000) from Cell Signaling Technology (Danver, MA, USA), STAT5 (rabbit polyclonal IgG; #sc-835, 1:1,000) from Santa Cruz (Santa Cruz, CA, USA), and β-actin (mouse monoclonal IgG; # A5441, 1:5000) from Sigma-Aldrich. Goat anti-rabbit IgG (#111-035-003; 1;5,000) and anti-mouse IgG (#115-035-033; 1:5,000) secondary antibodies were obtained from Jackson ImmunoResearch Laboratories, Inc. (West Grove, PA, USA).

Jurkat cells = experiment: Cell viability / growth inhibition (EZ-Cytox), Jurkat; format: cell-based; settings: Homo sapiens, Table 2, 72 h
Protocol: (§1) MV-4-11 human acute myeloid leukemia cells were purchased from the American Type Culture Collection (ATCC, Rockville, MD, USA, CRL-9591), and the cells were cultured in IMDM medium (Sigma Co., St. Louis, MO, USA) supplemented with 10% fetal bovine serum, 1% penicillin/streptomycin and 4 mM L-glutamine (Life Technology, Grand Island, NY). Jurkat (human acute T lymphocytic leukemia, ATCC TIB-152) and K562 (human chronic myelogenous leukemia, ATCC CCL-243) cells were cultured in RPMI-1640 (Sigma Co.), and MCF7 (human breast adenocarcinoma, ATCC HTB-22) and PC-3 (human prostate adenocarcinoma, ATCC CRL-1435) cells were cultured in DMEM (Sigma Co.) medium supplemented with 10% fetal bovine serum and 1% penicillin/streptomycin. The cultured cells were incubated at 37°C with 5% CO2. Cell viability was assessed with a tetrazolium-based assay using the EZ-Cytox Cell Viability Assay kit (DaeilLab, Korea). Briefly, 2,000 ∼ 15,000 cells were plated in 96-well flat bottom plates in 100 µl of medium. The next day, the cells were treated with compounds along with dimethyl sulfoxide (DMSO, Fisher, Waltham, MA, USA) as a negative control. […] After incubation, the optical density (OD) was measured at a wavelength of 450 nm with a Victor multilabel reader (Perkin Elmer, Waltham, MA, USA). The IC50 was calculated with nonlinear regression using Prism version 5.01 (GraphPad, La Jolla, CA, USA).

IRAK4 = target: T1, IRAK4 (Homo sapiens, UniProt Q9NWZ3); experiment: In vitro IRAK4 kinase assay (LANCE Ultra); format: biochemical
T1 sequence (Q9NWZ3 1-460): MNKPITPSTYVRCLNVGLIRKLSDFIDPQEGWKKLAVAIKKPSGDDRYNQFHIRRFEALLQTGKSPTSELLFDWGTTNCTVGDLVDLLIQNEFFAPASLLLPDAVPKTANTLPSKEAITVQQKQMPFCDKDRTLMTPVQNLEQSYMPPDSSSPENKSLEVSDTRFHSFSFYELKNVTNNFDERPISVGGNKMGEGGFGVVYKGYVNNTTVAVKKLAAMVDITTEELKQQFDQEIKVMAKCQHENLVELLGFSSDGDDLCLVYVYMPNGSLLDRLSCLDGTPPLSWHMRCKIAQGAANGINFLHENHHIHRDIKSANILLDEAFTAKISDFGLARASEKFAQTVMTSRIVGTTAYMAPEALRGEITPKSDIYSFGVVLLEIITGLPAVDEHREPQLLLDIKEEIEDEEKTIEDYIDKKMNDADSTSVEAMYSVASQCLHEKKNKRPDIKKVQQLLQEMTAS
Protocol: The in vitro kinase assay for IRAK4 was done with the LANCE Ultra Kinase Activity Assay (Perkin Elmer) containing the ULight-p70S6K (Thr389) peptide (phosphorylation motif […]). The assays consisted of the enzyme mixed with serially diluted compounds, 50 nM ULight-p70S6K (Thr389) peptide, and 500 μM ATP prediluted in kinase buffer (50 mM HEPES (pH 7.5), 10 mM MgCl2, 1 mM EGTA, 2 mM DTT, and 0.01% Tween20). Ten microliters of the total volume of the kinase reaction were added to the wells of a 96-well assay plate. The kinase reactions were incubated for 90 min. at 25°C and stopped by the addition of 10 mM EDTA. For the detection of the phospho-substrate, the Eu-anti-phospho-p70S6K (Thr389) antibody diluted in detection buffer was added to a final concentration of 2 nM, and the reactions were then incubated for 1 h at 25°C. The signal was measured on an EnVision multi-label reader.

K562 cells = experiment: Cell viability / growth inhibition (EZ-Cytox), K562; format: cell-based; settings: Homo sapiens, Table 2, 72 h
Protocol: as §1

[2] = Parallel artificial membrane permeability (PAMPA) assay; format: in vitro ADME

- IC50 (IRAK4): 300 nM
- PAMPA assay result [2]: –4.49 ± 0.140
- PAMPA level of permeability [2]: medium level of permeability
SMILES: COC(=O)c1ccc2c(c1)/C(=C1/Nc3ccccc3/C1=N\OCCN1CCNCC1)C(=O)N2.Cl.Cl [LDD1937, methyl (2Z,3E)-2′-oxo-3-((2-(piperazin-1-yl)ethoxy)imino)-[2,3′-biindolinylidene]-5′-carboxylate dihydrochloride]
- phosphorylated STAT5 ([1]; 1 nM): a reduction in the phosphorylated STAT5 was observed
- phospho-STAT5 band ([1]; 0.1 µM): completely disappeared
- GI50 (Jurkat cells): 1440 ± 290 nM
- GI50 (K562 cells): 1210 ± 330 nM
